Patent US8951560B2, “Isoflavone nanoparticles and use thereof” (DSM IP Assets B.V., priority 2005, dated 2015)

Key:
[1] = "swing" test (changing temperature test) of genistein-containing emulsions (Example 10); type: physicochemical; conditions: FIG. 7, comparative: emulsions with example 7 genistein after dry grinding in a Jet mill, 0.3%, 0.5%, 0.1%; ten sequences 5° C./43° C.
Description: To force the crystallization in a disperse system, a test was used in which the temperature is changed over a self-defined timeframe and in self-defined sequences. The test is called “swing” test (changing temperature test). The purpose of this test is to dissolve small particles at the higher temperature and to force re-crystallization at lower temperature. […] The following formulations were used for the “swing” test: […]
Oil- and water phase (o+w) were separately heated up to 70° C. (±5° C.) and were added together. The thickening agent (t) was added under moderate agitation. The mixture was homogenized for 30 seconds at 24,000 RPM by means of an Ultra-Turrax T25 homogenizer. The emulsion was cooled down slowly to 45° C.±5° C. under moderate stirring (horseshoe mixer, 120 RPM). At this temperature the pH value was adjusted to pH 6.5-7.0 by adding base (b). Genistein (g) was added to the still fluid emulsion and was incorporated by homogenizing again for 30 sec. 24,000 RPM by means of an Ultra-Turrax T25 homogenizer. The formulation was cooled down to 25° C.±5° C. under moderate stirring (horseshoe mixer, 120 RPM). […]
FIGS. 5 to 7 show the results of the “swing” test. […] The following genistein samples and concentrations were employed and the emulsions were measured immediately after preparation and after subjecting the samples to ten sequences of the “swing” test: […]

[2] = Genistein particle size by laser diffraction technique (Mastersizer 2000); type: physicochemical
[3] = Example 1, after homogenization (42 passes) and spray-drying, powder re-dispersed in water
[4] = Example 1, after homogenization (42 passes), 1500 bar, with starch sodium octenyl succinate, aqueous suspension
[5] = Example 1, before homogenization
[6] = Example 2, after homogenization (40 passes), 1500 bar, water only, no carrier
[7] = Example 2, after homogenization (42 passes) and spray-drying, powder re-dispersed in water
[8] = Example 2, after homogenization (42 passes), starch sodium octenyl succinate solution added after 40th pass
[9] = Example 2, before homogenization
[10] = Example 3, after homogenization (40 passes), 1500 bar, water only, no carrier
[11] = Example 3, after homogenization (42 passes) and spray-drying, powder re-dispersed in water
[12] = Example 3, after homogenization (42 passes), starch sodium octenyl succinate solution added after 40th pass
[13] = Example 3, before homogenization
[14] = Example 4, after homogenization (20 passes), 700 bar, water only, no carrier, about 20% solid
[15] = Example 4, before homogenization
[16] = Example 5, Table XI, after homogenization (42 passes) and spray-drying as headed, maltodextrin solution added after 40th pass
[17] = Example 5, Table XII, after homogenization (42 passes) and spray-drying, maltodextrin carrier, powder re-dispersed in water
[18] = Example 5, after homogenization (20 passes), 1500 bar, water only, no carrier
[19] = Example 5, before homogenization
[20] = Example 6, after homogenization (11 passages) in agitated bead mill, with starch sodium octenyl succinate
[21] = Example 6, before homogenization
[22] = Example 7, Table XIV, before milling and homogenization
[23] = Example 7, Table XV, before milling and homogenization
[24] = Example 7, after milling (Jet mill) and homogenization (12 times, 700 bar) with starch sodium octenyl succinate
[25] = Example 7, after milling, homogenization and spray drying

Particle size change in the "swing" test [1]: Huge crystals are formed | Average particle size D[3, 2] [2, 3]: 0.14 microns | Average particle size D[4, 3] [2, 3]: 0.83 microns | Genistein particle size D (v, 0.1) [2, 3]: 0.07 microns | Genistein particle size D (v, 0.5) [2, 3]: 0.16 microns | Genistein particle size D (v, 0.9) [2, 3]: 2.86 microns | Average particle size D[3, 2] [2, 4]: 0.15 microns | Average particle size D[4, 3] [2, 4]: 0.97 microns | Genistein particle size D (v, 0.1) [2, 4]: 0.07 microns | Genistein particle size D (v, 0.5) [2, 4]: 0.17 microns | Genistein particle size D (v, 0.9) [2, 4]: 3.65 microns | Average particle size D[3, 2] [2, 5]: 23.1 microns | Average particle size D[4, 3] [2, 5]: 48.5 microns | Genistein particle size D (v, 0.1) [2, 5]: 17.1 microns | Genistein particle size D (v, 0.5) [2, 5]: 41.9 microns | Genistein particle size D (v, 0.9) [2, 5]: 91.0 microns | Average particle size D[3, 2] [2, 6]: 0.14 microns | Average particle size D[4, 3] [2, 6]: 0.76 microns | Genistein particle size D (v, 0.1) [2, 6]: 0.07 microns | Genistein particle size D (v, 0.5) [2, 6]: 0.16 microns | Genistein particle size D (v, 0.9) [2, 6]: 2.42 microns | Average particle size D[3, 2] [2, 7]: 0.14 microns | Average particle size D[4, 3] [2, 7]: 0.55 microns | Genistein particle size D (v, 0.1) [2, 7]: 0.07 microns | Genistein particle size D (v, 0.5) [2, 7]: 0.15 microns | Genistein particle size D (v, 0.9) [2, 7]: 1.14 microns | Average particle size D[3, 2] [2, 8]: 0.14 microns | Average particle size D[4, 3] [2, 8]: 0.41 microns | Genistein particle size D (v, 0.1) [2, 8]: 0.07 microns | Genistein particle size D (v, 0.5) [2, 8]: 0.16 microns | Genistein particle size D (v, 0.9) [2, 8]: 0.93 microns | Average particle size D[3, 2] [2, 9]: 23.1 microns | Average particle size D[4, 3] [2, 9]: 48.5 microns | Genistein particle size D (v, 0.1) [2, 9]: 17.1 microns | Genistein particle size D (v, 0.5) [2, 9]: 41.9 microns | Genistein particle size D (v, 0.9) [2, 9]: 91.0 microns | Average particle size D[3, 2] [2, 10]: 0.14 microns | Average particle size D[4, 3] [2, 10]: 0.76 microns | Genistein particle size D (v, 0.1) [2, 10]: 0.07 microns | Genistein particle size D (v, 0.5) [2, 10]: 0.16 microns | Genistein particle size D (v, 0.9) [2, 10]: 2.00 microns | Average particle size D[3,2] (surface mean diameter) [2, 11]: 0.14 microns | Average particle size D[4, 3] [2, 11]: 0.43 microns | Genistein particle size D (v, 0.1) [2, 11]: 0.07 microns | Genistein particle size D (v, 0.5) [2, 11]: 0.16 microns | Genistein particle size D (v, 0.9) [2, 11]: 0.97 microns | Average particle size D[3, 2] [2, 12]: 0.14 microns | Average particle size D[4, 3] [2, 12]: 0.40 microns | Genistein particle size D (v, 0.1) [2, 12]: 0.07 microns | Genistein particle size D (v, 0.5) [2, 12]: 0.16 microns | Genistein particle size D (v, 0.9) [2, 12]: 0.91 microns | Average particle size D[3, 2] [2, 13]: 23.1 microns | Average particle size D[4, 3] [2, 13]: 48.5 microns | Genistein particle size D (v, 0.1) [2, 13]: 17.1 microns | Genistein particle size D (v, 0.5) [2, 13]: 41.9 microns | Genistein particle size D (v, 0.9) [2, 13]: 91.0 microns | Average particle size D[3, 2] [2, 14]: 0.13 microns | Average particle size D[4, 3] [2, 14]: 0.83 microns | Genistein particle size D (v, 0.1) [2, 14]: 0.07 microns | Genistein particle size D (v, 0.5) [2, 14]: 0.15 microns | Genistein particle size D (v, 0.9) [2, 14]: 2.62 microns | Average particle size D[3, 2] [2, 15]: 23.1 microns | Average particle size D[4, 3] [2, 15]: 48.5 microns | Genistein particle size D (v, 0.1) [2, 15]: 17.1 microns | Genistein particle size D (v, 0.5) [2, 15]: 41.9 microns | Genistein particle size D (v, 0.9) [2, 15]: 91.0 microns | Average particle size D[3, 2] [2, 16]: 0.14 microns | Average particle size D[4, 3] [2, 16]: 0.41 microns | Genistein particle size D (v, 0.1) [2, 16]: 0.07 microns | Genistein particle size D (v, 0.5) [2, 16]: 0.16 microns | Genistein particle size D (v, 0.9) [2, 16]: 0.93 microns | Average particle size D[3, 2] [2, 17]: 0.13 microns | Average particle size D[4, 3] [2, 17]: 0.41 microns | Genistein particle size D (v, 0.1) [2, 17]: 0.07 microns | Genistein particle size D (v, 0.5) [2, 17]: 0.15 microns | Genistein particle size D (v, 0.9) [2, 17]: 0.93 microns | Average particle size D[3,2] (surface mean diameter) [2, 18]: 0.14 microns | Average particle size D[4, 3] [2, 18]: 0.42 microns | Genistein particle size D (v, 0.1) [2, 18]: 0.07 microns | Genistein particle size D (v, 0.5) [2, 18]: 0.16 microns | Genistein particle size D (v, 0.9) [2, 18]: 0.92 microns | Average particle size D[3,2] (surface mean diameter) [2, 19]: 23.1 microns | Average particle size D[4, 3] [2, 19]: 48.5 microns | Genistein particle size D (v, 0.1) [2, 19]: 17.8 microns | Genistein particle size D (v, 0.5) [2, 19]: 41.4 microns | Genistein particle size D (v, 0.9) [2, 19]: 90.2 microns | Average particle size D[4, 3] [2, 20]: 0.23 microns | Genistein particle size D (v, 0.1) [2, 20]: 0.07 microns | Genistein particle size D (v, 0.5) [2, 20]: 0.16 microns | Genistein particle size D (v, 0.9) [2, 20]: 0.45 microns | Average particle size D[4, 3] [2, 21]: 48.5 microns | Genistein particle size D (v, 0.1) [2, 21]: 17.8 microns | Genistein particle size D (v, 0.5) [2, 21]: 41.4 microns | Genistein particle size D (v, 0.9) [2, 21]: 90.2 microns | Average particle size D[4, 3] [2, 22]: 48.5 microns | Genistein particle size D (v, 0.1) [2, 22]: 17.8 microns | Genistein particle size D (v, 0.5) [2, 22]: 41.4 microns | Genistein particle size D (v, 0.9) [2, 22]: 90.2 microns | Average particle size D[4, 3] [2, 23]: 48.5 microns | Genistein particle size D (v, 0.1) [2, 23]: 17.8 microns | Genistein particle size D (v, 0.5) [2, 23]: 41.4 microns | Genistein particle size D (v, 0.9) [2, 23]: 90.2 microns | Average particle size D[4, 3] [2, 24]: 0.53 microns | Genistein particle size D (v, 0.1) [2, 24]: 0.07 microns | Genistein particle size D (v, 0.5) [2, 24]: 0.18 microns | Genistein particle size D (v, 0.9) [2, 24]: 1.38 microns | Average particle size D[4, 3] [2, 25]: 0.65 microns | Genistein particle size D (v, 0.1) [2, 25]: 0.08 microns | Genistein particle size D (v, 0.5) [2, 25]: 0.19 microns | Genistein particle size D (v, 0.9) [2, 25]: 1.84 microns
Structure (SMILES): O=c1c(-c2ccc(O)cc2)coc2cc(O)cc(O)c12 [Genistein, 4′,5,7-trihydroxyisoflavone]
